Values of other authors, collected in PMC11579209, “Population pharmacokinetics and exposure–response relationships of maribavir in transplant recipients with cytomegalovirus infection” (Journal of Pharmacokinetics and Pharmacodynamics, 2024).

Tests used:
CMV = test system: CMV; parameters: method as in PMID 34674258; conditions: through Week 24 or Week 14; cited from earlier work
[1] = parameters: method as in PMID 12654667, doi:10.1016/j.bbmt.2018.12.600; conditions: metabolite of maribavir; cited from earlier work

| Structure (SMILES) | Exposure dependency of clinically significant CMV infection (CS-CMVi) (CMV) | Pharmacological activity of metabolite [1] |
| --- | --- | --- |
| COc1cccc(N2CCN(C3=Nc4c(F)cccc4[C@H](CC(=O)O)N3c3cc(C(F)(F)F)ccc3OC)CC2)c1 [letermovir] | no significant exposure dependencies | – |
| Nc1nc2cc(Cl)c(Cl)cc2n1[C@H]1O[C@@H](CO)[C@H](O)[C@@H]1O [VP44469] | – | pharmacologically inactive |
